The values that follow come from ChEMBL document CHEMBL1134827, “Design and synthesis of novel 2,3-dihydro-1H-isoindoles with high affinity and selectivity for the dopamine D3 receptor” (Bioorg Med Chem Lett, 2001).

In one data set the target is D(2) dopamine receptor (Homo sapiens, UniProt P14416). The experiment in a line: Displacement of [125I]iodosulpiride from human Dopamine receptor D2 expressed in CHO cells. The class given is cell-based.
Data set [1] addresses 5-hydroxytryptamine receptor 2B (Homo sapiens, UniProt P41595). The experiment in a line: Evaluated for the binding affinity to 5-HT 2B receptor.
The target in data set [2] is T1, 5-hydroxytryptamine receptor 2C (Homo sapiens, UniProt P28335).
T1 sequence (P28335 whole entry): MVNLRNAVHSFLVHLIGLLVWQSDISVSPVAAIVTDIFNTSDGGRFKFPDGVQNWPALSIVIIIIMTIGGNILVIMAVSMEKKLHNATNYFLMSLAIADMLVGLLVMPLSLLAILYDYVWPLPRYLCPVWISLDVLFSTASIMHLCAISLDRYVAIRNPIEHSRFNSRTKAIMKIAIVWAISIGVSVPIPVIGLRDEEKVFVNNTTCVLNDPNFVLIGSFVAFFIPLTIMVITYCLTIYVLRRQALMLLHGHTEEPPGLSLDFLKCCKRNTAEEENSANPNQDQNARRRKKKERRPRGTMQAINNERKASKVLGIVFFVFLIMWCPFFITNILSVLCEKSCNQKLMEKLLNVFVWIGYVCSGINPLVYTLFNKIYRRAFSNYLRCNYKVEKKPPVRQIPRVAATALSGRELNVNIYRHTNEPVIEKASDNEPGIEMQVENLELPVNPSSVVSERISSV
The experiment in a line: Evaluated for the binding affinity to 5-hydroxytryptamine 2C receptor.

Data set [3] addresses D(3) dopamine receptor (Rattus norvegicus) (UniProt P19020). The data set can be described thus: Antagonistic activity at D3 receptor using in vitro functional assay.
Data set [4] has as its target 5-hydroxytryptamine receptor 1D (Homo sapiens, UniProt P28221). The data set can be described thus: Evaluated for the binding affinity against 5-hydroxytryptamine 1D receptor.
Data set [5] has as its target 5-hydroxytryptamine receptor 7 (Homo sapiens, UniProt P34969). The experiment in a line: Evaluated for the binding affinity to 5-hydroxytryptamine 7 receptor.
A short description of data set [6]: Evaluated for the low clearance in rat (in vivo). It is filed as ADME, organism-based. Particulars: blood, read-out: CLb.
Data set [7] deals with 5-hydroxytryptamine receptor 2A (Homo sapiens, UniProt P28223). The experiment in a line: Evaluated for the binding affinity towards 5-hydroxytryptamine 2A receptor.
Sequence of 5-hydroxytryptamine receptor 2A (P28223 whole entry): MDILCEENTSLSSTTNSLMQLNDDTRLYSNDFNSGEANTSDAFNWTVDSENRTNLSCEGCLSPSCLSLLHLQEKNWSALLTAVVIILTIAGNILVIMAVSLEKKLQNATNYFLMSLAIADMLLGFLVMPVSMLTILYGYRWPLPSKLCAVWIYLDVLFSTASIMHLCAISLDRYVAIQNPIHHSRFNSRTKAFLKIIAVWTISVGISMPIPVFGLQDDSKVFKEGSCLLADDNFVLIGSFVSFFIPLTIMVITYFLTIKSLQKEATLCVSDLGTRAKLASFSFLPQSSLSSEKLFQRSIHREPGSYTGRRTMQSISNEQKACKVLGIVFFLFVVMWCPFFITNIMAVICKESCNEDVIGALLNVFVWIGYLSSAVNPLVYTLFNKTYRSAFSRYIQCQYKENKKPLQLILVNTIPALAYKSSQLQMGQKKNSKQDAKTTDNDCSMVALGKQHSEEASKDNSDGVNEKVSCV
The nature of data set [8]: Evaluated for the bioavailability in rat (in vivo). It is filed as ADME, organism-based.
Data set [9] has as its target T2, Alpha-1B adrenergic receptor (Homo sapiens, UniProt P35368).
T2 sequence (P35368 whole entry): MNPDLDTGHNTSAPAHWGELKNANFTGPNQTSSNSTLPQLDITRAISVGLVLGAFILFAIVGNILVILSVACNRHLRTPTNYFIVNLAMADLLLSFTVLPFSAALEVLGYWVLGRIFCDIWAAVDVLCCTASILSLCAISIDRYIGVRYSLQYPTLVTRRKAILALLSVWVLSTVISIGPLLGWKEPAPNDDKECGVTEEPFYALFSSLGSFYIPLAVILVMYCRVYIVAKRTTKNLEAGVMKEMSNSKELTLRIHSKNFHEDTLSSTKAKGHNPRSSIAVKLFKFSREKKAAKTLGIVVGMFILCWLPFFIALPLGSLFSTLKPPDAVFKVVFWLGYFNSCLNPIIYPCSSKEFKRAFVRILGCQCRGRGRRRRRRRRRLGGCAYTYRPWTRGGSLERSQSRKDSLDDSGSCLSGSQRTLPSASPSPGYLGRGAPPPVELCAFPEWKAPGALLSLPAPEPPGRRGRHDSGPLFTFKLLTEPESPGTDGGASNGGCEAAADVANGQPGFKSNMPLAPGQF
The experiment in a line: Evaluated for the binding affinity to alpha 1B receptor.

Data set [10] concerns the target T3, 5-hydroxytryptamine receptor 1A (Homo sapiens, UniProt P08908).
T3 sequence (P08908 whole entry): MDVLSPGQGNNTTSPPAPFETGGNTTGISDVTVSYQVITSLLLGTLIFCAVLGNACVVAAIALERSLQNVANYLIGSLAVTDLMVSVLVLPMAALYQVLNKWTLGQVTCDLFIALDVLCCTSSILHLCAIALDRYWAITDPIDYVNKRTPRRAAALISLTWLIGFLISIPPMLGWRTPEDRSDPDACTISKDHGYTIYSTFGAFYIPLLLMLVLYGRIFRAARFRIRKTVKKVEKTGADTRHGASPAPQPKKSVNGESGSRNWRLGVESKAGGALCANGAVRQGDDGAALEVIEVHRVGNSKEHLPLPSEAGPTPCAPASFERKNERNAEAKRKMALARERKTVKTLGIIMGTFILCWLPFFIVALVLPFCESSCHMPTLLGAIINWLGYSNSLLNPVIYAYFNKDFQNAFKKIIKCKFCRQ
The experiment in a line: Evaluated for the binding affinity to 5-hydroxytryptamine 1A receptor.

Data set [11] can be described thus: Evaluated for the half life in rat (in vivo). The class given is ADME, organism-based.
In data set [12] the target is 5-hydroxytryptamine receptor 6 (Homo sapiens, UniProt P50406). The data set can be described thus: Evaluated for the binding affinity towards 5-hydroxytryptamine 6 receptor.
Sequence of 5-hydroxytryptamine receptor 6 (P50406 whole entry): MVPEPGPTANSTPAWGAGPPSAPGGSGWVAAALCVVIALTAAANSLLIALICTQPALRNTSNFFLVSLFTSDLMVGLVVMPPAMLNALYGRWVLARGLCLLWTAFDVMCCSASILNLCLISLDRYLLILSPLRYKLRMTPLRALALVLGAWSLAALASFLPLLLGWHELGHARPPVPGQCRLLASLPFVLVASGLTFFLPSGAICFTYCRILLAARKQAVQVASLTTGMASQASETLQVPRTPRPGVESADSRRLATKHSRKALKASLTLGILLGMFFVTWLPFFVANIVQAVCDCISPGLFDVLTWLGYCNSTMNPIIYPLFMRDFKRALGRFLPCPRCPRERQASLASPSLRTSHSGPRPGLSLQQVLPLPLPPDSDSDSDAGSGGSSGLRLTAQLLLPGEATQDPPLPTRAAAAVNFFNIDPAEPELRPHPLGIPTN
The target in data set [13] is 5-hydroxytryptamine receptor 1B (Homo sapiens, UniProt P28222). The data set can be described thus: Evaluated for the binding affinity to 5-hydroxytryptamine 1B receptor.
Sequence of 5-hydroxytryptamine receptor 1B (P28222 whole entry): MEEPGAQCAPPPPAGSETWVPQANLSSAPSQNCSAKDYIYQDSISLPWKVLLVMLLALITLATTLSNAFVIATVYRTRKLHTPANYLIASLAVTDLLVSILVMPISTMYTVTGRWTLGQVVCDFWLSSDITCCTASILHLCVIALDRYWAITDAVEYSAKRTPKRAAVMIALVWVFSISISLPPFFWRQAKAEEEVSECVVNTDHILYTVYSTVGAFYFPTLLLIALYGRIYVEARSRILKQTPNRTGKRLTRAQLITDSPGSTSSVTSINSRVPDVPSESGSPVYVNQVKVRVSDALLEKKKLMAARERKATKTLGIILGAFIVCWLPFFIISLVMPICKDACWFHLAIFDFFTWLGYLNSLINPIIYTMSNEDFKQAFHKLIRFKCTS
The target in the next data set is D(3) dopamine receptor (Homo sapiens, UniProt P35462). The data set can be described thus: Displacement of [125I]iodosulpiride from human Dopamine receptor D3 expressed in CHO cells. The class given is cell-based. A general note: Displacement assays read how much labelled ligand stays bound in the presence of the test substance.
Sequence of D(3) dopamine receptor (P35462 whole entry): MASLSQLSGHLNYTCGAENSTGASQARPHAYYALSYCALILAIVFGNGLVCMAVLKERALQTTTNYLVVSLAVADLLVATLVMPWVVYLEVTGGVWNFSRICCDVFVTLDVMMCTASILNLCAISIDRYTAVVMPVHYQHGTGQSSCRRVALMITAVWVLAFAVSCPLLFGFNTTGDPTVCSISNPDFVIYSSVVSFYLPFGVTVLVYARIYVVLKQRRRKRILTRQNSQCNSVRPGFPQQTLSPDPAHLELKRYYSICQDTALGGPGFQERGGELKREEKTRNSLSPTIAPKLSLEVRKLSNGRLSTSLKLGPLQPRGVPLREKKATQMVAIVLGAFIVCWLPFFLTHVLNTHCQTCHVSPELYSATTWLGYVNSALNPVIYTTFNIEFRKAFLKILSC

Sequence of D(2) dopamine receptor (P14416 whole entry): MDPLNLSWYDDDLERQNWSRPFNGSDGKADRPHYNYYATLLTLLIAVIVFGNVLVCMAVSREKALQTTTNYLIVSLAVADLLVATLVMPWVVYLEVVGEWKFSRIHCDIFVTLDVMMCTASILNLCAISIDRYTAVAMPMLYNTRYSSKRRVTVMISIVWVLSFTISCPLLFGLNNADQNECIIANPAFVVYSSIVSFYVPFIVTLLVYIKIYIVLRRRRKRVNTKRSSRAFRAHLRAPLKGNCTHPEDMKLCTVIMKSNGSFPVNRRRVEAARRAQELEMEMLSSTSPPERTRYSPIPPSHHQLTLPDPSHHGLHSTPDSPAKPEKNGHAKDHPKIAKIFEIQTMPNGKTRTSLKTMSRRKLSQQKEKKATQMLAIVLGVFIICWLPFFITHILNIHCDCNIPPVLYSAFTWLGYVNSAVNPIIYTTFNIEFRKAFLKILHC
Sequence of 5-hydroxytryptamine receptor 2B (P41595 whole entry): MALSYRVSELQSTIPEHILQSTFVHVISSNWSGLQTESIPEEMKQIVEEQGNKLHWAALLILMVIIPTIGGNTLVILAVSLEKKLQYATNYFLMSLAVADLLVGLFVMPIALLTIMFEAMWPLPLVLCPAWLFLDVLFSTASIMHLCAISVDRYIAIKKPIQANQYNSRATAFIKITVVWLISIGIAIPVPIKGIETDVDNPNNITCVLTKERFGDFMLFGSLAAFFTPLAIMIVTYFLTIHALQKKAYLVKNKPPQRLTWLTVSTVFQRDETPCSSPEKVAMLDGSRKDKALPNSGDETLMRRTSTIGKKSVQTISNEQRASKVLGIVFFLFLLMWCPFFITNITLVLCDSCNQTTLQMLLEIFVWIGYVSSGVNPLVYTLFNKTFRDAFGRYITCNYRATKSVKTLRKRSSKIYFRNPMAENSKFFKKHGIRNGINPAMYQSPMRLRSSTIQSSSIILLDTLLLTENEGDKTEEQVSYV
Sequence of D(3) dopamine receptor (Rattus norvegicus) (P19020 whole entry): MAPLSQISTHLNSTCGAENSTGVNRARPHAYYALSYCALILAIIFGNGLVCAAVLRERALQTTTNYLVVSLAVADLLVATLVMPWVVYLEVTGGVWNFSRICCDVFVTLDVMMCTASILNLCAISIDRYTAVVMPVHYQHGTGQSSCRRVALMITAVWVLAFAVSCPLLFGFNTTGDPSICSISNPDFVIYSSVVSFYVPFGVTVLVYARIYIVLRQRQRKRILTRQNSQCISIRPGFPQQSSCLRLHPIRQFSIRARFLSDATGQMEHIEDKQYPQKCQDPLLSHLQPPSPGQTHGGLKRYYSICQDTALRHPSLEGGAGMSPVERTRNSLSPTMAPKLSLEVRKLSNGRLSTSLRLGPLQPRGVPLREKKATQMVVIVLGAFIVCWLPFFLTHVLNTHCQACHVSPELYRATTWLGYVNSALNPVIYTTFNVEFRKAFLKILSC
Sequence of 5-hydroxytryptamine receptor 7 (P34969 whole entry): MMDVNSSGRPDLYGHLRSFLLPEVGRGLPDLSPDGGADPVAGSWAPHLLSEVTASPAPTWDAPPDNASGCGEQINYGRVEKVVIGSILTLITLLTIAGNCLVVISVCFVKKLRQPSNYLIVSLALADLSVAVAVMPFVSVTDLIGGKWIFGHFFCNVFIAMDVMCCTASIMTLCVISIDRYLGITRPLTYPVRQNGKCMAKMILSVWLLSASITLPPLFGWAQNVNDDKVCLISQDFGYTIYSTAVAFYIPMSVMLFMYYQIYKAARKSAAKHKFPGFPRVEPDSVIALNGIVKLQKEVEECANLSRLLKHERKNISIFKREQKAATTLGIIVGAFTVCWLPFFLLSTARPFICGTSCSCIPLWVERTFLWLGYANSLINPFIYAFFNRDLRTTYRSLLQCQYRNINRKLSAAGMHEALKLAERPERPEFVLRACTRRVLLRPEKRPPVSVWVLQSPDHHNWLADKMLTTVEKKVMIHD
Sequence of 5-hydroxytryptamine receptor 1D (P28221 whole entry): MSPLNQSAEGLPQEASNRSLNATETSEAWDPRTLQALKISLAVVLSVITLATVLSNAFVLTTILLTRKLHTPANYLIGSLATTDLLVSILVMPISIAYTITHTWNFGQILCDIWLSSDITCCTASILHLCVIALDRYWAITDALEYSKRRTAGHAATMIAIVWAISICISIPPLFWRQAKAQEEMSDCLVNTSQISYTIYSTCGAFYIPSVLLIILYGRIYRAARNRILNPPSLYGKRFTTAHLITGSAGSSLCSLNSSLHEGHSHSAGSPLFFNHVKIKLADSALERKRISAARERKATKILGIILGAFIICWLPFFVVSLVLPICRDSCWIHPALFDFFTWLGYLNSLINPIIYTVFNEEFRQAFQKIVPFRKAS

As to `CS(=O)(=O)Oc1ccc2c(c1)CN(CC[C@H]1CC[C@H](NC(=O)/C=C/c3ccc(F)cc3)CC1)C2`, the Ki is 501 nM on D(2) dopamine receptor; more than 1000 nM in [1]; more than 7940 nM in [2]; 1260 nM in data set [4]; more than 3980 nM in data set [5]; more than 5010 nM in data set [7]. Further, the Ki in data set [9] is more than 5010 nM; in data set [10], 3160 nM; in data set [12], more than 10000 nM; in data set [13], 5010 nM; at D(3) dopamine receptor, 5.01 nM. Further, the pKb in data set [3] came to 8.3. The clearance in [6] was 14 mL/min/kg. The same compound came in with a bioavailability in [8] of 77%. The same compound had a half-life in [11] of 5.2 h.

Take `COc1cccc(/C=C/C(=O)N[C@H]2CC[C@H](CCN3Cc4ccc(C#N)cc4C3)CC2)c1`: the figures for the Ki at D(2) dopamine receptor and at D(3) dopamine receptor were 1000 nM and 10 nM, respectively.

For `N#Cc1ccc2c(c1)CN(CC[C@H]1CC[C@H](NC(=O)c3ccnc4ccccc34)CC1)C2`, the Ki at D(2) dopamine receptor is 2510 nM; at D(3) dopamine receptor, 63.1 nM.

As for `O=C(/C=C/c1ccc(F)cc1)N[C@H]1CC[C@H](CCN2Cc3ccc(Br)cc3C2)CC1`, the inhibitory constant (Ki) at D(2) dopamine receptor was 100 nM; at D(3) dopamine receptor, 3.16 nM.

Take `O=C(/C=C/c1ccc(F)cc1)N[C@H]1CC[C@H](CCN2Cc3ccc(C(F)(F)F)cc3C2)CC1`: the Ki on D(2) dopamine receptor was 398 nM; on D(3) dopamine receptor, 10 nM.

Consider `COc1ccc2c(c1)CN(CC[C@H]1CC[C@H](NC(=O)/C=C/c3ccc(F)cc3)CC1)C2`, for which the Ki was 200 nM on D(2) dopamine receptor and 7.94 nM on D(3) dopamine receptor.

On to `N#Cc1ccc2c(c1)CN(CC[C@H]1CC[C@H](NC(=O)/C=C/c3ccc(F)cc3)CC1)C2`, for which the Ki at D(2) dopamine receptor is 631 nM; on D(3) dopamine receptor, 12.6 nM.

For the compound `N#Cc1ccc2c(c1)CN(CC[C@H]1CC[C@H](NC(=O)c3cc4ccccc4[nH]3)CC1)C2`, the inhibition constant Ki on D(2) dopamine receptor is 2510 nM; at D(3) dopamine receptor, 25.1 nM.

The term Ki denotes a dissociation constant, usually derived from enzyme kinetics or from competition with a known ligand. A higher Ki goes with a looser hold on the target. The pKb is the negative decadic logarithm of the Kb, by convention in mol/L. By bioavailability is commonly meant the share of a dose that reaches the circulation, judged against a reference dose that is usually intravenous. High values mean much systemic uptake, low ones little systemic uptake. The half-life is the time in which the quantity being followed falls by half. Read a high half-life as slow loss.
